Results as given in US20150218212A1, “FLUORINATED EPOXYKETONE-BASED TETRAPEPTIDE COMPOUNDS AND USES THEREOF AS PROTEASOME INHIBITORS” (FLUORINOV PHARMA INC., priority 2012, published 2015).

How the values were obtained:
Assay type in all cases: cell-based, human
OVCAR-3 = experiment: NCI screening panel, OVCAR-3 (Ovarian Cancer)
Procedure: (§1) Representative compounds of Formula I were screened using the National Cancer Institute (NCI) screening panel, which consists of a panel of human tumor cell lines, representing leukemia, melanoma, and cancers of the lung, colon, ovary, breast, prostate and renal system.
(§2) After 24 h, two plates of each cell line are fixed in situ with TCA, to represent a measurement of the cell population for each cell line at the time of drug addition (Tz). Experimental drugs are solubilised in dimethyl sulfoxide at 400-fold the desired final maximum test concentration and stored frozen prior to use. At the time of drug addition, an aliquot of frozen concentrate is thawed and diluted to twice the desired final maximum test concentration with complete medium containing 50 μg/mL gentamicin. Additional four, 10-fold or ½ log serial dilutions are made to provide a total of five drug concentrations plus control. Aliquots of 100 μl of these different drug dilutions are added to the appropriate microtiter wells already containing 100 μl of medium, resulting in the required final drug concentrations.
(§3) Following drug addition, the plates are incubated for an additional 48 h at 37° C., 5% CO2, 95% air, and 100% relative humidity. For adherent cells, the assay is terminated by the addition of cold TCA (trichloroacetic acid). Cells are fixed in situ by the gentle addition of 50 μl of cold 50% (w/v) TCA (final concentration, 10% TCA) and incubated for 60 minutes at 4° C. The supernatant is discarded, and the plates are washed five times with tap water and air dried. Sulforhodamine B (SRB) solution (100 μl) at 0.4% (w/v) in 1% acetic acid is added to each well, and plates are incubated for 10 minutes at room temperature. After staining, unbound dye is removed by washing five times with 1% acetic acid and the plates are air dried. Bound stain is subsequently solubilised with 10 mM trizma base, and the absorbance is read on an automated plate reader at a wavelength of 515 nm. For suspension cells, the methodology is the same except that the assay is terminated by fixing settled cells at the bottom of the wells by gently adding 50 μl of 80% TCA (final concentration, 16% TCA). Using the seven absorbance measurements [time zero, (Tz), control growth, (C), and test growth in the presence of drug at the five concentration levels (Ti)], the percentage growth is calculated at each of the drug concentrations levels. Percentage growth inhibition is calculated as: [(Ti−Tz)/(C−Tz)]×100 for concentrations for which Ti>/=Tz and [(Ti−Tz)/Tz]×100 for concentrations for which Ti<Tz.
(§4) Three dose response parameters are calculated for each experimental agent. Growth inhibition of 50% (GI50) is calculated from [(Ti−Tz)/(C−Tz)]×100=50, which is the drug concentration resulting in a 50% reduction in the net protein increase (as measured by SRB staining) in control cells during the drug incubation. The drug concentration resulting in total growth inhibition (TGI) is calculated from Ti=Tz. The LC50 (concentration of drug resulting in a 50% reduction in the measured protein at the end of the drug treatment as compared to that at the beginning) indicating a net loss of cells following treatment is calculated from [(Ti−Tz)/Tz]×100=−50. Values are calculated for each of these three parameters if the level of activity is reached. However, if the effect is not reached or is exceeded, the value for that parameter is expressed as greater or less than the maximum or minimum concentration tested.

MDA-MB-468 = experiment: NCI screening panel, MDA-MB-468 (Breast Cancer)
Procedure: as §1, §2, §3, §4

LOX IMVI = experiment: NCI screening panel, LOX IMVI (Melanoma)
Procedure: as §1, §2, §3, §4

UO-31 = experiment: NCI screening panel, UO-31 (Renal Cancer)
Procedure: as §1, §2, §3, §4

NCI-H522 = experiment: NCI screening panel, NCI-H522 (Non-Small Cell Lung Cancer)
Procedure: as §1, §2, §3, §4

IGROV1 = experiment: NCI screening panel, IGROV1 (Ovarian Cancer)
Procedure: as §1, §2, §3, §4

SK-MEL-5 = experiment: NCI screening panel, SK-MEL-5 (Melanoma)
Procedure: as §1, §2, §3, §4

COLO 205 = experiment: NCI screening panel, COLO 205 (Colon Cancer)
Procedure: as §1, §2, §3, §4

CC(C)C[C@H](NC(=O)[C@H](COC(F)F)NC(=O)CN1CCOCC1)C(=O)N[C@@H](COC(F)F)C(=O)N[C@@H](CC(C)C)C(=O)[C@@]1(C)CO1 [Example 1, (2S)—N-[(1S)-1-(difluoromethoxymethyl)-2-[[(1S)-3-methyl-1-[(2R)-2-methyloxirane-2-carbonyl]butyl]amino]-2-oxo-ethyl]-2-[[(2S)-3-(difluoromethoxy)-2-[(2-morpholinoacetyl)amino]propanoyl]amino]-4-methyl-pentanamide]
Log10GI50 (OVCAR-3): −7.69 | Log10LC50 (OVCAR-3): −6.91 | Log10TGI50 (OVCAR-3): −7.34 | Log10GI50 (MDA-MB-468): −7.55 | Log10LC50 (MDA-MB-468): >−4.00 | Log10TGI50 (MDA-MB-468): −6.89 | Log10GI50 (LOX IMVI): −7.85 | Log10LC50 (LOX IMVI): −7.16 | Log10TGI50 (LOX IMVI): −7.51 | Log10GI50 (UO-31): −5.70 | Log10LC50 (UO-31): >−4.00 | Log10TGI50 (UO-31): −4.86 | Log10GI50 (NCI-H522): −7.96 | Log10LC50 (NCI-H522): −4.04 | Log10TGI50 (NCI-H522): −7.05 | Log10GI50 (IGROV1): −7.43 | Log10LC50 (IGROV1): >−4.00 | Log10TGI50 (IGROV1): −6.40 | Log10GI50 (SK-MEL-5): −7.55 | Log10LC50 (SK-MEL-5): −6.30 | Log10TGI50 (SK-MEL-5): −6.97 | Log10GI50 (COLO 205): −7.39 | Log10LC50 (COLO 205): −5.59 | Log10TGI50 (COLO 205): −6.72

CC(C)C[C@H](NC(=O)[C@H](COC(F)F)NC(=O)CN1CCOCC1)C(=O)N[C@@H](Cc1ccccc1)C(=O)N[C@@H](CC(C)C)C(=O)[C@@]1(C)CO1 [Example 2, (2S)-N-[(1S)-1-benzyl-2-[[(1S)-3-methyl-1-[(2R)-2-methyloxirane-2-carbonyl]butyl]-amino]-2-oxo-ethyl]-2-[[(2S)-3-(difluoromethoxy)-2-[(2-morpholinoacetyl)amino]propanoyl]amino]-4-methyl-pentanamide]
Log10GI50 (OVCAR-3): −7.80 | Log10LC50 (OVCAR-3): −6.64 | Log10TGI50 (OVCAR-3): −7.34 | Log10GI50 (MDA-MB-468): −7.75 | Log10LC50 (MDA-MB-468): −4.63 | Log10TGI50 (MDA-MB-468): −7.13 | Log10GI50 (LOX IMVI): <−8.00 | Log10LC50 (LOX IMVI): −7.21 | Log10TGI50 (LOX IMVI): −7.62 | Log10GI50 (UO-31): −6.49 | Log10LC50 (UO-31): −5.01 | Log10TGI50 (UO-31): −5.80 | Log10GI50 (NCI-H522): <−8.00 | Log10TGI50 (NCI-H522): −7.43 | Log10GI50 (IGROV1): −7.59 | Log10LC50 (IGROV1): >−4.00 | Log10TGI50 (IGROV1): −6.66 | Log10GI50 (SK-MEL-5): −7.53 | Log10LC50 (SK-MEL-5): −6.23 | Log10TGI50 (SK-MEL-5): −6.94 | Log10GI50 (COLO 205): −7.44 | Log10LC50 (COLO 205): −5.93 | Log10TGI50 (COLO 205): −6.69

CC(C)C[C@H](NC(=O)[C@H](COC(F)F)NC(=O)CN1CCOCC1)C(=O)N[C@@H](Cc1ccccc1)C(=O)N[C@@H](Cc1ccccc1)C(=O)[C@@]1(C)CO1 [Example 3, (2S)-N-[(1S)-1-benzyl-2-[[(1S)-1-benzyl-2-[(2R)-2-methyloxiran-2-yl]-2-oxo-ethyl]amino]-2-oxo-ethyl]-2-[[(2S)-3-(difluoromethoxy)-2-[(2-morpholinoacetyl)-amino]propanoyl]amino]-4-methyl-pentan-amide]
Log10GI50 (OVCAR-3): <−8.00 | Log10LC50 (OVCAR-3): −6.36 | Log10TGI50 (OVCAR-3): −7.25 | Log10GI50 (MDA-MB-468): <−8.00 | Log10LC50 (MDA-MB-468): −6.09 | Log10TGI50 (MDA-MB-468): −7.34 | Log10GI50 (LOX IMVI): <−8.00 | Log10LC50 (LOX IMVI): −7.13 | Log10TGI50 (LOX IMVI): −7.71 | Log10GI50 (UO-31): −6.65 | Log10LC50 (UO-31): −5.08 | Log10TGI50 (UO-31): −5.91 | Log10GI50 (NCI-H522): <−8.00 | Log10LC50 (NCI-H522): −6.18 | Log10TGI50 (NCI-H522): −7.55 | Log10GI50 (IGROV1): −7.93 | Log10LC50 (IGROV1): >−4.00 | Log10TGI50 (IGROV1): −7.02 | Log10GI50 (SK-MEL-5): −7.71 | Log10LC50 (SK-MEL-5): −6.43 | Log10TGI50 (SK-MEL-5): −7.19 | Log10GI50 (COLO 205): −7.73 | Log10LC50 (COLO 205): −4.53 | Log10TGI50 (COLO 205): −6.48

CC(C)C[C@H](NC(=O)[C@H](COC(F)F)NC(=O)CN1CCOCC1)C(=O)N[C@@H](COC(F)F)C(=O)N[C@@H](Cc1ccccc1)C(=O)[C@@]1(C)CO1 [Example 4, (2S)-N-[(1S)-2-[[(1S)-1-benzyl-2-[(2R)-2-methyloxiran-2-yl]-2-oxo-ethyl]amino]-1-(difluoromethoxymethyl)-2-oxo-ethyl]-2-[[(2S)-3-(difluoromethoxy)-2-[(2-mor-pholinoacetyl)amino]propanoyl]amino]-4 methyl-pentanamide]
Log10GI50 (OVCAR-3): −7.43 | Log10LC50 (OVCAR-3): −6.11 | Log10TGI50 (OVCAR-3): −6.89 | Log10GI50 (MDA-MB-468): −7.35 | Log10LC50 (MDA-MB-468): >−4.00 | Log10TGI50 (MDA-MB-468): −6.37 | Log10GI50 (LOX IMVI): −7.77 | Log10LC50 (LOX IMVI): −7.06 | Log10TGI50 (LOX IMVI): −7.42 | Log10GI50 (UO-31): −5.77 | Log10LC50 (UO-31): −4.22 | Log10TGI50 (UO-31): −5.24 | Log10GI50 (NCI-H522): −7.75 | Log10LC50 (NCI-H522): −6.06 | Log10TGI50 (NCI-H522): −7.11 | Log10GI50 (IGROV1): −7.33 | Log10LC50 (IGROV1): >−4.00 | Log10TGI50 (IGROV1): −5.57 | Log10GI50 (SK-MEL-5): −7.33 | Log10LC50 (SK-MEL-5): −5.71 | Log10TGI50 (SK-MEL-5): −6.60 | Log10GI50 (COLO 205): −7.25 | Log10LC50 (COLO 205): −4.46 | Log10TGI50 (COLO 205): −6.28

CC(C)C[C@H](NC(=O)[C@H](COC(F)F)NC(=O)[C@H](COC(F)F)NC(=O)[C@H](CCc1ccccc1)NC(=O)CN1CCOCC1)C(=O)[C@@]1(C)CO1 [Example 7, (2S)-N-[(1S)-1-(difluoromethoxymethyl)-2-[[(1S)-1-(difluoromethoxymethyl)-2-[[(1S)-3-methyl-1-[(2R)-2-methyloxirane-2-carbo-nyl]butyl]amino]-2-oxo-ethyl]amino]-2-oxo-ethyl]-2-[(2-morpholinoacetyl)amino]-4-phenyl-butanamide]
Log10GI50 (OVCAR-3): −7.64 | Log10LC50 (OVCAR-3): −6.40 | Log10TGI50 (OVCAR-3): −7.24 | Log10GI50 (MDA-MB-468): −7.58 | Log10LC50 (MDA-MB-468): −4.78 | Log10TGI50 (MDA-MB-468): −7.09 | Log10GI50 (LOX IMVI): −7.99 | Log10LC50 (LOX IMVI): −7.13 | Log10TGI50 (LOX IMVI): −7.56 | Log10GI50 (UO-31): −5.97 | Log10LC50 (UO-31): −4.70 | Log10TGI50 (UO-31): −5.45 | Log10GI50 (NCI-H522): −7.88 | Log10LC50 (NCI-H522): −4.62 | Log10TGI50 (NCI-H522): −7.20 | Log10GI50 (IGROV1): −7.49 | Log10LC50 (IGROV1): >−4.00 | Log10TGI50 (IGROV1): −5.55 | Log10GI50 (SK-MEL-5): −7.55 | Log10LC50 (SK-MEL-5): −6.35 | Log10TGI50 (SK-MEL-5): −6.99 | Log10GI50 (COLO 205): −7.23 | Log10LC50 (COLO 205): >−4.00 | Log10TGI50 (COLO 205): −5.89
